Experiment [1] relates to primary mouse hippocampal neurons. In words: NMDA induced cell death (excitotoxicity) in cultured primary neurons. Format: cell-based. The note with it: polypeptide expressed via rAAV infection on DIV3; NMDA 20 μM for 10 min; cell death assessed 24 h later.
Experiment [2] has the same test system. Put plainly: NMDA receptor induced mitochondrial membrane potential breakdown (Rh123 imaging). It is filed as cell-based. The method, then: Coverslips with primary cultured neurons (DIV15-DIV17) were used to examine mitochondrial membrane potential (Ψm) and mitochondrial calcium signalling, which was performed at room temperature in CO2-independent culture medium (CICM) containing: 10 mM HEPES, 140 mM NaCl, 2.5 mM KCl, 1.0 mM MgCl2, 2.0 mM CaCl2, 1.0 mM Glycine, 35.6 mM Glucose and 0.5 mM Na-pyruvate. All images were obtained by a cooled-CCD camera (iXon 887, Andor) on an upright microscope (BX51WI, Olympus). Fluorescence excitation was provided by a xenon arc lamp in combination with an excitation filter wheel (MT-20, Olympus). Data were collected using Cell^R software (Olympus), analysed using ImageJ and quantified using Igor Pro (WaveMetrics). Ψm was detected with the small molecule fluorescence indicator Rhodamine 123 (Rh123; Molecular Probe™, R302). Primary cultured neurons were loaded with 4.3 μM Rh123 in CICM at 37° C. for 30 min, then washed and left in CICM for another 30 min before recording. At the end of each experiment, the mitochondrial uncoupler FCCP (5 μM, Sigma-Aldrich, Cat #C2920) was applied to the cells to reach the maximal Rh123 fluorescence intensity. Rh123 was imaged with 470±20 nm excitation and 525±25 nm emission wavelengths using a 20× objective. Rh123 fluorescence intensity was measured in the nucleus to minimize contamination from cytosolic mitochondrial signal and Rh123 fluorescence intensity was normalized to the maximum FCCP signal for each region of interest.
Mitochondrial dysfunction is a hallmark of NMDA receptor excitotoxicity and an early event en-route to neuronal death. A parameter that is often used to assess mitochondrial integrity is the mitochondrial membrane potential. A breakdown of the mitochondrial membrane potential can be observed after exposure of hippocampal or cortical neurons to NMDA and indicates excitotoxicity-associated mitochondrial dysfunction. Therefore, the inventors investigated the effect of polypeptides comprising the sequence of SEQ ID NO:5 or SEQ ID NO: 54 as well as of the control TRMP5 sequence (SEQ ID NO: 55) on mitochondrial membrane potential break down in primary mouse hippocampal neurons. Excitotoxicity leading to mitochondrial membrane potential break down was induced with bath application of 20 μM NMDA. After 11 minutes, the mitochondrial uncoupler, carbonylcyanide-p-trifluoromethoxyphenylhydrazone (FCCP) was added. Addition of FCCP leads to break-down of the mitochondrial membrane potential and served as a control of the test system.

The values below come from patent US20260242440A1, “NOVEL MEANS TO MODULATE NMDA RECEPTOR-MEDIATED TOXICITY” (FUNDAMENTAL PHARMA GMBH, priority 2018, published 2026).

For “SEQ ID NO:5: polypeptide, amino acid residues 633-689 of mouse TRPM4 (NSEERAARLLLRRCPLWGEATCLQLAMQADARAFFAQDGVQSLLTQKWWGEMDSTTP; listed as Mus musculus)”, the “protection against NMDA induced cell death (neuroprotective effect)” value in experiment [1] was “neuroprotective”. In experiment [2] (polypeptides expressed via rAAV, bath application of 20 μM NMDA), the “NMDA receptor induced mitochondrial membrane potential breakdown” value was “capable of preventing NMDA receptor induced mitochondrial membrane potential breakdown”.

As for `CCN(CCN)Cc1cccc(Br)c1` [P4], the “protection of mitochondrial membrane potential from NMDA excitotoxicity” value in experiment [2] (compound applied 30 min prior to recording, bath application of NMDA) is recorded as “significantly protect mitochondrial membrane potential from NMDA excitotoxicity”.
